Experimental data from ChEMBL document CHEMBL1132542, “Vasorelaxation by new hybrid compounds containing dihydropyridine and pinacidil-like moieties” (J Med Chem, 1999).

Assays:
[1] = Vasorelaxation in rat mesenteric arteries after contractile stimulus (norepinephrine+glibenclamide); assay type: functional
Rattus norvegicus [2] = species on record: Rattus norvegicus; assay: Vasorelaxation activity in rat mesenteric arteries after contractile stimulus(K+ depolarization)
[3] = biological target: T1, Voltage-dependent L-type calcium channel subunit alpha-1C (Homo sapiens, UniProt Q13936); assay: Inhibition of VGCC alpha-1C-b expressed in CHO cells -80 mV holding potential, peak Ba2+ current, at 10e-5 M; assay type: functional, cell-based; conditions: hamster
[4] = biological target: T1, Voltage-dependent L-type calcium channel subunit alpha-1C; assay: Inhibition of VGCC alpha-1C-b expressed in CHO cells -80 mV holding potential, peak Ba2+ current, at 10e-6 M; assay type: functional, cell-based
[5] = biological target: T1, Voltage-dependent L-type calcium channel subunit alpha-1C; assay: Inhibition of VGCC alpha-1C-b expressed in CHO cells -30 mV holding potential, peak Ba2+ current, at 10e-5 M; assay type: functional, cell-based
[6] = Inhibition of [3H]P1075 binding to ATP-sensitive potassium channels of rat cardiac membranes; assay type: cell membranes, Membrane
[7] = biological target: T1, Voltage-dependent L-type calcium channel subunit alpha-1C; assay: Inhibition of VGCC alpha-1C-b expressed in CHO cells -30 mV holding potential, peak Ba2+ current, at 10e-6 M; assay type: functional, cell-based
Rattus norvegicus [8] = species on record: Rattus norvegicus; assay: Vasorelaxation activity in rat mesenteric arteries after contractile stimulus (norepinephrine)
Rattus norvegicus [9] = species on record: Rattus norvegicus; assay: Vasorelaxation activity in rat mesenteric arteries after contractile stimulus(K+ depolarization).
[10] = biological target: T1, Voltage-dependent L-type calcium channel subunit alpha-1C; assay: Inhibition of VGCC alpha-1C-b expressed in CHO cells -80 mV holding potential, peak Ba2+ current, at 10e-4 M; assay type: functional, cell-based
[11] = biological target: T1, Voltage-dependent L-type calcium channel subunit alpha-1C; assay: Inhibition of VGCC alpha-1C-b expressed in CHO cells -30 mV holding potential, peak Ba2+ current, at 10e-4 M; assay type: functional, cell-based

T1 sequence (Q13936 whole entry): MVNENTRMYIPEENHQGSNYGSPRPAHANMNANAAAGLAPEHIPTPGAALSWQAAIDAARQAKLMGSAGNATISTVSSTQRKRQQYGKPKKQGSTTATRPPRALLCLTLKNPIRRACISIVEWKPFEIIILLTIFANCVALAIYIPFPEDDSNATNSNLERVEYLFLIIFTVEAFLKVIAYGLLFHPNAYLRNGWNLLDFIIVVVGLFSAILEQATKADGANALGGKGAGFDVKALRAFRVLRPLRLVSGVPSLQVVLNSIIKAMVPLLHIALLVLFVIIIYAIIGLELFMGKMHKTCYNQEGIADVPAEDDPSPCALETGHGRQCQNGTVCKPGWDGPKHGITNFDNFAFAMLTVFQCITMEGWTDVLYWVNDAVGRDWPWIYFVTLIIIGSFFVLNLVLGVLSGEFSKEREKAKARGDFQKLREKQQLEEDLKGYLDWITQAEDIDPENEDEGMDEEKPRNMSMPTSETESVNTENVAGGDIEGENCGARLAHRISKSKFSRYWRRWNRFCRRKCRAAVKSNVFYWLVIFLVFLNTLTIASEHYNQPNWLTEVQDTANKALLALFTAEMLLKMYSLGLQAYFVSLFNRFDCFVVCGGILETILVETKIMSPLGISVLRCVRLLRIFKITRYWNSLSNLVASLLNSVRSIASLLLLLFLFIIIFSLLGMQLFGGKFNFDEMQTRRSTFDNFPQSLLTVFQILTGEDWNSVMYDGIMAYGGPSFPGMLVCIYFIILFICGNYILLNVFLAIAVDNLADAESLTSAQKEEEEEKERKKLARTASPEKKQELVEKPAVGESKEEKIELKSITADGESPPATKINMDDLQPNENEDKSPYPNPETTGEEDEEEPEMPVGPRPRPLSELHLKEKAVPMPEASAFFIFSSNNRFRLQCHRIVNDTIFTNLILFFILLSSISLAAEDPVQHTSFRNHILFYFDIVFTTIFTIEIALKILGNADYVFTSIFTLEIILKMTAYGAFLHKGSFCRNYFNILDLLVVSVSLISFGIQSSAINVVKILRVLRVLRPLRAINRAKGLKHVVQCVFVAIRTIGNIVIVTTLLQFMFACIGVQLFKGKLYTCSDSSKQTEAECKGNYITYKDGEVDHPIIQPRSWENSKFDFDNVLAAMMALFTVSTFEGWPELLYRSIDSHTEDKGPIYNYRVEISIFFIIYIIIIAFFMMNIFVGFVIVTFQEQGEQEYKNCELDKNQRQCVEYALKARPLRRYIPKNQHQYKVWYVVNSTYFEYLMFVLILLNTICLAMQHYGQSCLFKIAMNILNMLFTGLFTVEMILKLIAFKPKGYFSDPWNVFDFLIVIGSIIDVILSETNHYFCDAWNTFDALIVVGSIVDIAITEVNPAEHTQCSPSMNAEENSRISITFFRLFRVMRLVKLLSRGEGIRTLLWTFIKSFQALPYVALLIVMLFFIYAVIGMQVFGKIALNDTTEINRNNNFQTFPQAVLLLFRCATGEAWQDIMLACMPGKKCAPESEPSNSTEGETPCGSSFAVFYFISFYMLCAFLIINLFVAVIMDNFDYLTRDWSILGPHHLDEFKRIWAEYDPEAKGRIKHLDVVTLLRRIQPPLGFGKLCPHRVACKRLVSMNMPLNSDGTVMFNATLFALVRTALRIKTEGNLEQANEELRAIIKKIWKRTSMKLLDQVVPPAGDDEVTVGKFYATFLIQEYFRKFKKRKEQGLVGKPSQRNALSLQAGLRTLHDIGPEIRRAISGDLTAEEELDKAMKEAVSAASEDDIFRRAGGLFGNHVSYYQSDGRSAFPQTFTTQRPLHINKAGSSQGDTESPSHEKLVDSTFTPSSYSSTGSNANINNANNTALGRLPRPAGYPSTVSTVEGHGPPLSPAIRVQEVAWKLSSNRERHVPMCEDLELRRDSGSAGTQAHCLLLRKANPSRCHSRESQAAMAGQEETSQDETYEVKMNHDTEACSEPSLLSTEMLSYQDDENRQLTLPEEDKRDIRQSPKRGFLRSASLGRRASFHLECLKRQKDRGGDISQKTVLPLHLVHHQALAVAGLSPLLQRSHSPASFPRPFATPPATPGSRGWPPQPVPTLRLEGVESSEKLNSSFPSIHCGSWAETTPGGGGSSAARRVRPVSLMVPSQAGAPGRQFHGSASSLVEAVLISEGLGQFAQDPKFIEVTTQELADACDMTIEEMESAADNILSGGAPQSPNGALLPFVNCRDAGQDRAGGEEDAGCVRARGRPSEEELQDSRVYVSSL

| Log EC50 [1] | EC50 (Rattus norvegicus [2]) [nM] | Peak current [3] [%] | Peak current [4] [%] | Peak current [5] [%] | pIC50 [6] | Peak current [7] [%] | EC50 (Rattus norvegicus [8]) [nM] | EC50 (Rattus norvegicus [9]) [nM] | Peak current [10] [%] | Peak current [11] [%] | Structure (SMILES) |
| --- | --- | --- | --- | --- | --- | --- | --- | --- | --- | --- | --- |
| -6.2 | 372 | 38.2 | 60.4 | 2.5 | 6.2 | 9.2 | 200 | – | – | – | COC(=O)C1=C(C)N=C(C)/C(=C(/O)OC)C1c1cc(N/C(=N/C(C)C(C)(C)C)NC#N)ccc1OC(F)F (stereo not drawn) |
| – | 955 | – | – | – | – | – | – | – | – | – | CCOC(=O)C1=C(C)N=C(C)/C(=C(/O)OCC)C1c1cc(N/C(=N/C(C)C(C)(C)C)NC#N)ccc1OC(F)F (stereo not drawn) |
| – | – | – | – | – | – | – | – | 2340 | – | – | CO/C(O)=C1\C(C)=NC(C)=C(C#N)C1c1cc(N/C(=N/C(C)C(C)(C)C)NC#N)ccc1OC(F)F (stereo not drawn) |
| -6.12 | 7410 | 58.2 | – | 10.8 | 8.7 | – | 288 | – | 26.7 | 2.4 | CC(/N=C(\NC#N)Nc1ccc(OC(F)F)cc1)C(C)(C)C (stereo not drawn) |
